This passage reports IC50, Activity and MIC90 results from ChEMBL document CHEMBL6121037, “Screening, Discovery, and Optimization of the Natural Antitubercular Chlorflavonin from a Marine-Derived Fungal Library” (J Nat Prod, 2025).

Assay [1] has as its system A549. Briefly: Cytotoxicity against human A549 cells by MTT assay. The class given is functional, cell-based.
Assay [2] concerns A549. Briefly: Cytotoxicity against human A549 cells at 20 uM by MTT assay. It counts as functional, cell-based. (In general: Tetrazolium assays rely on reduction of a dye to a coloured formazan, in cell work by metabolically active cells.)
Assay [3] has as its system Mycobacterium tuberculosis. Briefly: Antitubercular activity against Mycobacterium tuberculosis H37Ra assessed as reduction in microbial growth. The class given is functional.
Assay [4] has as its system Staphylococcus aureus. The assay is described as follows: Antibacterial activity against Staphylococcus aureus assessed as reduction in microbial growth at 25 ug/ml incubated for 24 hrs. Particulars: dose 25.0 µg/ml. The class given is functional, organism-based.
In assay [5] the test system is Mycobacterium marinum. Briefly: Antibacterial activity against Mycobacterium marinum assessed as reduction in microbial growth at 100 ug/ml. It counts as functional, organism-based. Particulars: dose 100.0 µg/ml.

The term IC50 denotes the concentration at which inhibition is half-maximal. Higher therefore signals lower potency. In general, MIC90 refers to an inhibitory concentration at the 90% level, which refers to growth in some studies and to a panel of isolates in others.

Structures can show the parent of a compound that is named as a salt. The source made the active and inactive calls. No cut-off for these calls is given here.

Consider `COc1cccc2c1C(=O)c1c(O)c3c(c(O)c1C2=O)C[C@@](O)(C(=O)CO)C[C@@H]3O[C@H]1C[C@H](N)[C@H](O)[C@H](C)O1` [DOXORUBICIN HYDROCHLORIDE], for which half-maximal inhibition in assay [1] (IC50) was put at 0.25 µM.

On to `COc1cc(O)c2c(=O)c(OC)c(-c3cccc(Cl)c3OC(=O)/C=C/c3cccc(Cl)c3)oc2c1OC`, for which the outcome in assay [2], in assay [4] and in assay [5] was inactive. Moreover, in assay [3], the MIC90 stood at 0.9 µM.

Turning to `COc1ccc(/C=C/C(=O)Oc2c(Cl)cccc2-c2oc3c(OC)c(OC)cc(O)c3c(=O)c2OC)cc1`, the outcome in assay [2], in assay [4] and in assay [5] was inactive. Moreover, the MIC90 in assay [3] amounted to 1.9 µM.
